Tests used:
Assay in all cases: KINOMEscan
Type in all cases: binding
Conditions in all cases: read-out: percent control
NEK4 = NEK4 (Homo sapiens (Human), UniProt P51957)
Source text: (§1) Example 2. In Vitro Kinase Selectivity Profiling of the Compounds of the Present Disclosure

RIPK2 = RIPK2 (Homo sapiens (Human), UniProt O43353)
Source text: as §1

LIMK2 = LIMK2 (Homo sapiens (Human), UniProt P53671)
Source text: as §1

PIK3CA(H1047Y) = PIK3CA(H1047Y) (Homo sapiens (Human), UniProt P42336, H1047Y)
PIK3CA(H1047Y), sequence (P42336 whole entry H1047Y): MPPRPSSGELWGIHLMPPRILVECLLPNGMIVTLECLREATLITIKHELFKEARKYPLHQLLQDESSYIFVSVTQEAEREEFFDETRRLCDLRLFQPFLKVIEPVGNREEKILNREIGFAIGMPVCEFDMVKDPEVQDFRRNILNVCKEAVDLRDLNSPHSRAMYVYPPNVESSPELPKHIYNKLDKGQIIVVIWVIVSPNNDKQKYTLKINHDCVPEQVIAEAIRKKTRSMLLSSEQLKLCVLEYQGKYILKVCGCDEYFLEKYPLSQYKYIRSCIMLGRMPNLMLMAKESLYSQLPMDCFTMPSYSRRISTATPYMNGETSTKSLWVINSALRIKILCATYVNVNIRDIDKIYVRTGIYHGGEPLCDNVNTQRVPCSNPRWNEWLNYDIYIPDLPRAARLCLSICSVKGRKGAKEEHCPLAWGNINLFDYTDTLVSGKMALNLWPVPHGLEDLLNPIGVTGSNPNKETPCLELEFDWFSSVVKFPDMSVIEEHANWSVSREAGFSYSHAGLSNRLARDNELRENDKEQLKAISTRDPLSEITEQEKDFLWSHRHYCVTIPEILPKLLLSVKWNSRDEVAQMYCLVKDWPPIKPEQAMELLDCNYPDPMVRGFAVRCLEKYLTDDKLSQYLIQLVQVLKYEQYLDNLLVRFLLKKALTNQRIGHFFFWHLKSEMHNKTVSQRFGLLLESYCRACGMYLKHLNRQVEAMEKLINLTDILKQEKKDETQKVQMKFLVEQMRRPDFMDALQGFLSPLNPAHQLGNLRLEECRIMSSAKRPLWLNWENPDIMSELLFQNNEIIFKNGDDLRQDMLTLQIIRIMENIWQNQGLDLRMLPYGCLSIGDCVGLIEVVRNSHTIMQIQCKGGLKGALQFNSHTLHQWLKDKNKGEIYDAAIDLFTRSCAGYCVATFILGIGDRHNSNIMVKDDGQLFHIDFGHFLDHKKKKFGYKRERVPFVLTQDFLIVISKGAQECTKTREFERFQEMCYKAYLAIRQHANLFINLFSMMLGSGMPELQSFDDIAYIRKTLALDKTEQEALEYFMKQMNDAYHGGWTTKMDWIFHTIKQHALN
Source text: as §1

FGFR3(G697C) = FGFR3(G697C) (Homo sapiens (Human), UniProt P22607, G697C)
Source text: as §1

QSK = QSK (Homo sapiens (Human), UniProt Q9Y2K2)
Source text: as §1

PIK3CA(E542K) = PIK3CA(E542K) (Homo sapiens (Human), UniProt P42336, E542K)
PIK3CA(E542K), sequence (P42336 whole entry E542K): as the sequence (P42336 whole entry H1047Y) above, with E542K, Y1047H counted along it
Source text: as §1

KIT(D816H) = KIT(D816H) (Homo sapiens (Human), UniProt P10721, D816H)
Source text: as §1

WNK2 = WNK2 (Homo sapiens (Human), UniProt Q9Y3S1)
Source text: as §1

PRP4 = PRP4 (Homo sapiens (Human), UniProt Q13523)
Source text: as §1

MAP4K3 = MAP4K3 (Homo sapiens (Human), UniProt Q8IVH8)
Source text: as §1

PIK3CA(H1047L) = PIK3CA(H1047L) (Homo sapiens (Human), UniProt P42336, H1047L)
PIK3CA(H1047L), sequence (P42336 whole entry H1047L): as the sequence (P42336 whole entry H1047Y) above, with Y1047L counted along it
Source text: as §1

HIPK4 = HIPK4 (Homo sapiens (Human), UniProt Q8NE63)
Source text: as §1

ADCK3 = ADCK3 (Homo sapiens (Human), UniProt Q8NI60)
ADCK3, sequence (Q8NI60 163-647): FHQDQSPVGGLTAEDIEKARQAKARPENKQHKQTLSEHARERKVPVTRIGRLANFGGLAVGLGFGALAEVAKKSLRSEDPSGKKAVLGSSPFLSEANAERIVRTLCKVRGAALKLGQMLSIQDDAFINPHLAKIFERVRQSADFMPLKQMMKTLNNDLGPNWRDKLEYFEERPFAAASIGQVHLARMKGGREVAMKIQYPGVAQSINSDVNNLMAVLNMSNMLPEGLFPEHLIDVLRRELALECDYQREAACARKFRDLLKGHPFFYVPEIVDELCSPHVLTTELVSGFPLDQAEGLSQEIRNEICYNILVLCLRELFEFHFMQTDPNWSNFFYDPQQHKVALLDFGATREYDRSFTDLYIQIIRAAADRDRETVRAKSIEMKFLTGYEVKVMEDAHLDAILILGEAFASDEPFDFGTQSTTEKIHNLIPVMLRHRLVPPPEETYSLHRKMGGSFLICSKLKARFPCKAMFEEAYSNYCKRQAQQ
Source text: as §1

EGFR(T790M) = EGFR(T790M) (Homo sapiens (Human), UniProt P00533, T790M)
Source text: as §1

DYRK2 = DYRK2 (Homo sapiens (Human), UniProt Q92630)
Source text: as §1

PIK3C2B = PIK3C2B (Homo sapiens (Human), UniProt O00750)
Source text: as §1

SLK = SLK (Homo sapiens (Human), UniProt Q9H2G2)
Source text: as §1

KIT(D816V) = KIT(D816V) (Homo sapiens (Human), UniProt P10721, D816V)
Source text: as §1

CDKL1 = CDKL1 (Homo sapiens (Human), UniProt Q00532)
Source text: as §1

CSNK2A1 = CSNK2A1 (Homo sapiens (Human), UniProt P68400)
Source text: as §1

IKK-alpha = IKK-alpha (Homo sapiens (Human), UniProt O15111)
IKK-alpha, sequence (O15111 whole entry): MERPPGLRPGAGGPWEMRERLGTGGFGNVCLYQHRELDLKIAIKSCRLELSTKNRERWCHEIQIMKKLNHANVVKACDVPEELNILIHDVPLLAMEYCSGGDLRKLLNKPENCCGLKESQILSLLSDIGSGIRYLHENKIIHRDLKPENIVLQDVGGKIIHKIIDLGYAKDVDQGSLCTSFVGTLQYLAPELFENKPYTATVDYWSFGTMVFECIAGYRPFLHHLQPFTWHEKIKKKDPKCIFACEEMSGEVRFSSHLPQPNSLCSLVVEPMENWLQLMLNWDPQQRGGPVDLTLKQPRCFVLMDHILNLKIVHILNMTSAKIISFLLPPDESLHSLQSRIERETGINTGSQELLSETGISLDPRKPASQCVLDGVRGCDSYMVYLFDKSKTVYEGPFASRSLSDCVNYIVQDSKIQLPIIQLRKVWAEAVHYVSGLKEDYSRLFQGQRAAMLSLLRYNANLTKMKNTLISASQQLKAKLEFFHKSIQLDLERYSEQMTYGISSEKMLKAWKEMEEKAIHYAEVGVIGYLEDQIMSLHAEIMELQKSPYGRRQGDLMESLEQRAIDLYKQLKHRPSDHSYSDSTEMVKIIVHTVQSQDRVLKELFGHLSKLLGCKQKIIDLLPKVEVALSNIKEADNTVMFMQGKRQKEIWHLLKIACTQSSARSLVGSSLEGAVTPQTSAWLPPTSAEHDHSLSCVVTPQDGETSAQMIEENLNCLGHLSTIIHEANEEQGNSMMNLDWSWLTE
Source text: as §1

JNK2 = JNK2 (Homo sapiens (Human), UniProt P45984)
Source text: as §1

AURKB = AURKB (Homo sapiens (Human), UniProt Q96GD4)
AURKB, sequence (Q96GD4 whole entry): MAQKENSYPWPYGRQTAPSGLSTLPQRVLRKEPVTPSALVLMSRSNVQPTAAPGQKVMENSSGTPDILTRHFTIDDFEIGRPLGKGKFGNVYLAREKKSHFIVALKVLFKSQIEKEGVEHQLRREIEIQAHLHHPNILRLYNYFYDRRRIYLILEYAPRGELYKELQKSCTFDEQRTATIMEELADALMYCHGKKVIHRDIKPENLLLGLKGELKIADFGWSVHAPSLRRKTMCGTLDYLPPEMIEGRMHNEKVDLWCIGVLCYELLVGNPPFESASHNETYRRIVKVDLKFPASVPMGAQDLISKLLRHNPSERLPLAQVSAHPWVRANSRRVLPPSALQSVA
Source text: as §1

PAK2 = PAK2 (Homo sapiens (Human), UniProt Q13177)
Source text: as §1

IRAK4 = IRAK4 (Homo sapiens (Human), UniProt Q9NWZ3)
Source text: as §1

ERK5 = ERK5 (Homo sapiens (Human), UniProt Q13164)
Source text: as §1

[1] = biological target: RSK2(Kin.Dom.1-N-terminal) (Homo sapiens (Human), UniProt P51812)
Source text: as §1

SBK1 = SBK1 (Homo sapiens (Human), UniProt Q52WX2)
Source text: as §1

INSR = INSR (Homo sapiens (Human), UniProt P06213)
Source text: as §1

PFTAIRE2 = PFTAIRE2 (Homo sapiens (Human), UniProt Q96Q40)
Source text: as §1

CDK11 = CDK11 (Homo sapiens (Human), UniProt Q9BWU1)
Source text: as §1

SRMS = SRMS (Homo sapiens (Human), UniProt Q9H3Y6)
Source text: as §1

PHKG1 = PHKG1 (Homo sapiens (Human), UniProt Q16816)
PHKG1, sequence (Q16816 whole entry): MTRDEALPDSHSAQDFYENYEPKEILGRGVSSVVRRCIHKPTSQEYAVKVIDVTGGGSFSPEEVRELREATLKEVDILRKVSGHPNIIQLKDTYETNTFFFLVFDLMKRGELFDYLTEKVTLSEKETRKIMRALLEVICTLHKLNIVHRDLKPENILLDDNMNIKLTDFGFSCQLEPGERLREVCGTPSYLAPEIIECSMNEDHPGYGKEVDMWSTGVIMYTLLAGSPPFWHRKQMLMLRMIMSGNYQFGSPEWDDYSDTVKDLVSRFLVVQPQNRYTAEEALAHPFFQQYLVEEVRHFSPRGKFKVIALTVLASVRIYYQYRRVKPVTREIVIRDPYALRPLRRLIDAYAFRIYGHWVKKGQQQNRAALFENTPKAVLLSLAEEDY
Source text: as §1

PCTK2 = PCTK2 (Homo sapiens (Human), UniProt Q00537)
Source text: as §1

PLK2 = PLK2 (Homo sapiens (Human), UniProt Q9NYY3)
PLK2, sequence (Q9NYY3 whole entry): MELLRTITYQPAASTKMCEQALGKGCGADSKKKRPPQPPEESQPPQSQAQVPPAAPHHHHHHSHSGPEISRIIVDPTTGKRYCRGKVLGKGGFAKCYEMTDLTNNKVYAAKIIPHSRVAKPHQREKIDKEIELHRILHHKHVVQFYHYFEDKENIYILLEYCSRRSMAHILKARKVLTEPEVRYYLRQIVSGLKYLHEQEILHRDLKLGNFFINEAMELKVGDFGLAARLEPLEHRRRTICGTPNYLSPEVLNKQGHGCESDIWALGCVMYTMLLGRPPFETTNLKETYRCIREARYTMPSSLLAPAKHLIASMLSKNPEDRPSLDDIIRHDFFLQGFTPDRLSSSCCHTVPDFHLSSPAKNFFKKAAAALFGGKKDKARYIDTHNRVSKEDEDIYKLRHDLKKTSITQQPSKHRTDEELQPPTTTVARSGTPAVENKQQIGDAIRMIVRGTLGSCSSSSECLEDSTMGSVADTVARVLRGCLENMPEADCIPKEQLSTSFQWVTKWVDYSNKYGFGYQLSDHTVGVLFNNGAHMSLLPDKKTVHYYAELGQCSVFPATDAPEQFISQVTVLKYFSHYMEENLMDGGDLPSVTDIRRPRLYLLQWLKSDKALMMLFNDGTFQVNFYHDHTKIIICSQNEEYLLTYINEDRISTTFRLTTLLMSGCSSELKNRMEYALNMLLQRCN
Source text: as §1

TGFBR2 = TGFBR2 (Homo sapiens (Human), UniProt P37173)
Source text: as §1

INSRR = INSRR (Homo sapiens (Human), UniProt P14616)
Source text: as §1

HPK1 = HPK1 (Homo sapiens (Human), UniProt Q92918)
Source text: as §1

PRKD1 = PRKD1 (Homo sapiens (Human), UniProt Q15139)
Source text: as §1

LIMK2, sequence (P53671 whole entry): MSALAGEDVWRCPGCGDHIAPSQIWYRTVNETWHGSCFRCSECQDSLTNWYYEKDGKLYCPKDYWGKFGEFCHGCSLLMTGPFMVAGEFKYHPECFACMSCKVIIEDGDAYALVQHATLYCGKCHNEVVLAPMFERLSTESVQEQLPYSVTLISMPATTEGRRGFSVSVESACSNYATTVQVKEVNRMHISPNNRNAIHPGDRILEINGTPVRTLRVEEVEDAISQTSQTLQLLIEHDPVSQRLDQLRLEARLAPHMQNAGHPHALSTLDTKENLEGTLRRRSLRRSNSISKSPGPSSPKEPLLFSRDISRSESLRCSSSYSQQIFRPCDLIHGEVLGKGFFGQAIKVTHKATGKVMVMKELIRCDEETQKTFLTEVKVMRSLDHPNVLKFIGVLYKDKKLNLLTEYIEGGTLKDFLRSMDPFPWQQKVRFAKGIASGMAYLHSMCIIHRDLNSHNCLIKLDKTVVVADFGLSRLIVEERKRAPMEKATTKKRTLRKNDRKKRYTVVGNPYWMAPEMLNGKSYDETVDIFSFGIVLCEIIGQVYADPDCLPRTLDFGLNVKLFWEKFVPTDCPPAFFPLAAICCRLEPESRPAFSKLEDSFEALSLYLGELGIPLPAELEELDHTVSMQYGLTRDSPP
RIPK2, sequence (O43353 whole entry): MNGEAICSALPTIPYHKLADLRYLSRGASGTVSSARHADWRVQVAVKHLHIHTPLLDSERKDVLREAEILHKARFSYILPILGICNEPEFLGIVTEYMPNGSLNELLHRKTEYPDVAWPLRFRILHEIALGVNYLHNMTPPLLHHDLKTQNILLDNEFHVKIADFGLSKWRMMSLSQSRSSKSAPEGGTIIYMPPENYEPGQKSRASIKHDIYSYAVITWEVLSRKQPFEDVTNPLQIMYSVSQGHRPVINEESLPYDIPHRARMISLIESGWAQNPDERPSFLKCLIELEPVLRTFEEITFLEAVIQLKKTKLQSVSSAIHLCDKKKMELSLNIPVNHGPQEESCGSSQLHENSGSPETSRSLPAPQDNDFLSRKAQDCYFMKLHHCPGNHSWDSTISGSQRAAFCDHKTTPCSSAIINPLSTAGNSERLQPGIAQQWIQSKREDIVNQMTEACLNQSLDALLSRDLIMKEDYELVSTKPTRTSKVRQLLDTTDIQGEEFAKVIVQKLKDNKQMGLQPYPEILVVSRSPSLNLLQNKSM

SMILES	remaining binding at 1 µM (NEK4) [%]	remaining binding at 1 µM (RIPK2) [%]	remaining binding at 1 µM (LIMK2) [%]	remaining binding at 1 µM (PIK3CA(H1047Y)) [%]	remaining binding at 1 µM (FGFR3(G697C)) [%]	remaining binding at 1 µM (QSK) [%]	remaining binding at 1 µM (PIK3CA(E542K)) [%]	remaining binding at 1 µM (KIT(D816H)) [%]	remaining binding at 1 µM (WNK2) [%]	remaining binding at 1 µM (PRP4) [%]	remaining binding at 1 µM (MAP4K3) [%]	remaining binding at 1 µM (PIK3CA(H1047L)) [%]	remaining binding at 1 µM (HIPK4) [%]	remaining binding at 1 µM (ADCK3) [%]	remaining binding at 1 µM (EGFR(T790M)) [%]	remaining binding at 1 µM (DYRK2) [%]	remaining binding at 1 µM (PIK3C2B) [%]	remaining binding at 1 µM (SLK) [%]	remaining binding at 1 µM (KIT(D816V)) [%]	remaining binding at 1 µM (CDKL1) [%]	other results
CCN1CCN(Cc2ccc(Nc3nc4ccc(Oc5ccnc(NC(C)=O)c5)cc4n3C)cc2C(F)(F)F)CC1 [Compound I-2]	56	94	100	62	98	60	100	22	98	100	71	73	100	85	96	83	85	81	56	84	remaining binding at 1 µM (CSNK2A1): 66%; remaining binding at 1 µM (IKK-alpha): 100%; remaining binding at 1 µM (JNK2): 85%; remaining binding at 1 µM (AURKB): 49%; remaining binding at 1 µM (PAK2): 97%; remaining binding at 1 µM (IRAK4): 81%; remaining binding at 1 µM (ERK5): 89%; remaining binding at 1 µM [1]: 95%; remaining binding at 1 µM (SBK1): 84%; remaining binding at 1 µM (INSR): 20%; remaining binding at 1 µM (PFTAIRE2): 75%; remaining binding at 1 µM (CDK11): 1.5%; remaining binding at 1 µM (SRMS): 67%; remaining binding at 1 µM (PHKG1): 94%; remaining binding at 1 µM (PCTK2): 91%; remaining binding at 1 µM (PLK2): 94%; remaining binding at 1 µM (TGFBR2): 90%; remaining binding at 1 µM (INSRR): 5.3%; remaining binding at 1 µM (HPK1): 69%; remaining binding at 1 µM (PRKD1): 99%
CCN1CCN(Cc2ccc(Nc3nc4ccc(Oc5ccnc(NC(C)=O)c5)c(C)c4n3C)cc2C(F)(F)F)CC1 [Compound I-6, N-(4-(2-(4-((4-ethylpiperazin-1-yl)methyl)-3-(trifluoromethyl)phenylamino)-1,7-dimethyl-1H-benzo[d]imidazol-6-yloxy)pyridin-2-yl)acetamide]	56	82	88	86	66	85	100	44	66	100	74	85	100	100	83	97	97	55	50	87	remaining binding at 1 µM (CSNK2A1): 91%; remaining binding at 1 µM (IKK-alpha): 75%; remaining binding at 1 µM (JNK2): 66%; remaining binding at 1 µM (AURKB): 81%; remaining binding at 1 µM (PAK2): 98%; remaining binding at 1 µM (IRAK4): 98%; remaining binding at 1 µM (ERK5): 88%; remaining binding at 1 µM [1]: 83%; remaining binding at 1 µM (SBK1): 89%; remaining binding at 1 µM (INSR): 12%; remaining binding at 1 µM (PFTAIRE2): 100%; remaining binding at 1 µM (CDK11): 1.6%; remaining binding at 1 µM (SRMS): 38%; remaining binding at 1 µM (PHKG1): 91%; remaining binding at 1 µM (PCTK2): 35%; remaining binding at 1 µM (PLK2): 71%; remaining binding at 1 µM (TGFBR2): 81%; remaining binding at 1 µM (INSRR): 5.8%; remaining binding at 1 µM (HPK1): 56%; remaining binding at 1 µM (PRKD1): 95%

Source: patent publication US12522583B2, “Benzimidazole derivatives and aza-benzimidazole derivatives as Janus kinase 2 inhibitors and uses thereof” (Dana-Farber Cancer Institute, Inc., priority 2018, dated 2026)
